According to patent US20210246144A1, “A SET OF MITOCHONDRIA-TARGETED COMPOUNDS” (MITOTECH S.A., priority 2017, published 2021):

Columns and labels:
[1] = test system: mitochondrial membrane potential; assay: mitochondrial uncoupling (protonophore), decrease of mitochondrial membrane potential; details: causes decrease in mitochondrial membrane potential and reduction of ROS production by mitochondria
[2] = test system: isolated mitochondria or live cultures of human cells; details: cited from earlier work
[3] = test system: isolated mitochondria; details: cited from earlier work
[4] = relative to the antioxidant concentrations; cited from earlier work
[5] = fluorescent uncoupler activity
Method: (§1) Dibromoalkanes (60, 61) were heated with (triphenyl)phosphine in benzene at 80° C., and the obtained bromoalkyl(triphenyl)phosphonium bromides (62, 63) were reacted with fluorescein in the presence of sodium carbonate. As a result, bromides of {4-[2-(6-hydroxy-3-oxo-3H-xanthen-9-yl)benzoyloxy]butyl}(triphenyl)phosphonium (64) and {10-[2-(6-hydroxy-3-oxo-3H-xanthen-9-yl)benzoyloxy]decyl}(triphenyl)phosphonium (65).

[6] = neuroprotective and nephroprotective properties
Method: as §1

CCCCCCCCCCOC(=O)c1ccccc1-c1c2cc(C)/c(=N/CC)cc-2oc2cc(NCC)c(C)cc12 [Compound 28, decyl 2-[(3E)-6-(ethylamino)-3-(ethylimino)-2,7-dimethyl-3H-xanthen-9-yl]benzoate]
mitochondrial uncoupling (protonophore) activity [1]: soft cationic mitochondrial uncouplers (protonophores)

CCCCCCCCCCCCOC(=O)c1ccccc1-c1c2cc(C)/c(=N/CC)cc-2oc2cc(NCC)c(C)cc12 [Compound 29, dodecyl 2-[(3E)-6-(ethylamino)-3-(ethylimino)-2,7-dimethyl-3H-xanthen-9-yl]benzoate]
mitochondrial uncoupling (protonophore) activity [1]: soft cationic mitochondrial uncouplers (protonophores)

COc1ccc2c(CC(=O)OCCCCCCCCCC3=CC(=O)C(C)=C(C)C3=O)c3[n+](cc2c1OC)CCc1cc2c(cc1-3)OCO2 [SkQBerb, 21-(2-{[9-(4,5-dimethyl-3,6-dioxocyclohexa-1,4-dien-1-yl)nonyl]oxy}-2-oxoethyl)-16,17-dimethoxy-5,7-dioxa-13λ^5-azapentacyclo[11.8.0.0^21.0.0^4.8.0^15.20]henicosa-1(21),2,4(8),9,13,15(20),16,18-octaen-13-ylium]
accumulation in isolated mitochondria or live human cells [2]: accumulate in isolated mitochondria or live cultures of human cells
inhibition of lipid peroxidation [3]: inhibit lipid peroxidation in isolated mitochondria in nanomolar concentrations
prooxidant effect [4]: manifested at significantly higher concentrations

COc1cc2c(cc1OC)-c1c(CC(=O)OCCCCCCCCCC3=CC(=O)C(C)=C(C)C3=O)c3ccc(OC)c(OC)c3c[n+]1CC2 [SkQPalm, 13-(2-{[9-(4,5-dimethyl-3,6-dioxocyclohexa-1,4-dien-1-yl)nonyl]oxy}-2-oxoethyl)-3,4,10,11-tetramethoxy-7,8-dihydro-6λ^5-azatetraphen-6-ylium]
accumulation in isolated mitochondria or live human cells [2]: accumulate in isolated mitochondria or live cultures of human cells
inhibition of lipid peroxidation [3]: inhibit lipid peroxidation in isolated mitochondria in nanomolar concentrations
prooxidant effect [4]: manifested at significantly higher concentrations

CC/N=c1/cc2oc3cc(NCC)c(C)cc3c(-c3ccccc3C(=O)OCCCCCCCCCCC3=CC(=O)C(C)=C(C)C3=O)c-2cc1C.Cl [SkQR1]
mitochondrial uncoupling (protonophore) activity [1]: soft cationic mitochondrial uncouplers (protonophores)

{4-[2-(6-hydroxy-3-oxo-3H-xanthen-9-yl)benzoyloxy]butyl}(triphenyl)phosphonium [Compound 64]
uncoupler activity [5]: fluorescent uncouplers
neuroprotective and nephroprotective properties [6]: neuroprotective and nephroprotective properties

{10-[2-(6-hydroxy-3-oxo-3H-xanthen-9-yl)benzoyloxy]decyl}(triphenyl)phosphonium [Compound 65]
uncoupler activity [5]: fluorescent uncouplers
neuroprotective and nephroprotective properties [6]: neuroprotective and nephroprotective properties
